Reference: patent US20110301087A1, “CRF1 RECEPTOR COMPOUNDS” (priority 2008, published 2011)
Where a SMILES comes first, the peptide text is derived from it. [ ]: non-standard residue; d: D form. The star is where a group is joined. Palmitoyl = CCCCCCCCCCCCCCCC(=O)*; Nle = CCCC[C@H](N)C(=O)O

Biological target: T1, CRF1 (Homo sapiens, UniProt P34998)
T1 construct: endogenously expresses functional CRF1; endogenous in cells; host or cells: Y-79 human retinoblastoma cells
T1 sequence (P34998 24-415): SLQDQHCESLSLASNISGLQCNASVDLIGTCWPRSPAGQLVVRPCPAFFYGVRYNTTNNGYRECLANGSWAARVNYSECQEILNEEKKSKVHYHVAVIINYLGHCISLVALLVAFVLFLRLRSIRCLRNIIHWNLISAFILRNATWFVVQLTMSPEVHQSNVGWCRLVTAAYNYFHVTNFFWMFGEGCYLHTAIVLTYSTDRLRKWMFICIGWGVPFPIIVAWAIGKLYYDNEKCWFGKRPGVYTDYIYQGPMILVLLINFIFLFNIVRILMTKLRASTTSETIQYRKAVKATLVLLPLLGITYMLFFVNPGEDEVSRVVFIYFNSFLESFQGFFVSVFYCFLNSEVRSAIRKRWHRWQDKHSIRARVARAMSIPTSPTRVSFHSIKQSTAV
Test: CRF1 assessment of cAMP (HTRF cAMP assay) in Y-79 cells, antagonist mode
Format: cell-based
Conditions: Y79 cells; for IC50: CRF1 cAMP screening, against agonist; for inhibition at 0.3 µM: 300 nM pepducin against agonist dose response, read-out: % Inhibition (± SD)
Excerpt: HTRF (homogeneous time resolved fluorescence) is a technology developed by Cisbio Bioassays based on TR-FRET (time-resolved fluorescence resonance energy transfer). Cisbio Bioassays has developed a wide selection of HTRF-based assays compatible with whole cells, thereby enabling functional assays run under more physiological conditions. cAMP kits are based on a competitive immunoassay using cryptate-labeled anti-cAMP antibody and d2-labeled cAMP. This assay allows the measurement of increase in intracellular cAMP upon Gs-coupled receptor activation as well as decrease in forskolin stimulated increase in cAMP upon Gi-coupled receptor activation. Cells expressing CRF1 endogenously or via transfection can be used to assess compound pharmacology using cAMP assays as a means to measure the activity of adenylyl cyclase resulting from CRF1 activation or inhibition.
An example of the use of the cAMP assay can be assessing CRF activation of CRF1 in Y-79, a human retinoblastoma cell line which endogenously expresses functional CRF1. Y-79 cells were seeded into 96-well half area black plates at 30K/well in Hank's balanced salt solution with 50 mM HEPES, 0.1% BSA, 200 uM IBMX. Compounds to be tested for agonist activity were added to cells, incubated for 30 minutes at 37 degrees C. and assayed for cAMP concentration. To test for antagonist activity, compounds to be tested were added to cells, followed by the addition of agonist at an experimentally determined optimal concentration, generally the EC80. Plates were incubated for 30 minutes at 37 degrees C. and assayed for cAMP. To determine concentration of cAMP in each well, d2-labeled cAMP in Conjugate/Lysis buffer was added to wells. This addition lysed the cells and input a known concentration of labeled cAMP. This was followed by the addition of anti-cAMP antibody conjugated to cryptate. FRET occurs when cryptate-labeled antibody binds to d2-labeled cAMP. Therefore, the specific signal is inversely proportional to the concentration of cAMP in the sample. Conversion of signal to concentration of cAMP in the well was accomplished by comparing the FRET signal of sample to a standard curve generated using known concentrations of cAMP.

Row | IC50 | inhibition at 0.3 µM | SMILES
1 | > 10 µM | 70% | CCCCCCCCCCCCCCCC(=O)N[C@H](C(=O)N[C@@H](C)C(=O)N[C@@H](CCCNC(=N)N)C(=O)N[C@@H](CC(C)C)C(=O)N[C@@H](CCCNC(=N)N)C(=O)N[C@@H](CCCCN)C(=O)N[C@@H](Cc1c[nH]c2ccccc12)C(=O)N[C@@H](CCSC)C(=O)N[C@@H](Cc1ccccc1)C(=O)N[C@H](C(N)=O)[C@@H](C)CC)[C@@H](C)O [Compound 45] (Palmitoyl-TARLRKWMFI-NH2)
2 | > 10 µM | 58% | CCCCCCCCCCCCCCCC(=O)N[C@H](C(=O)N[C@@H](CC(=O)O)C(=O)N[C@@H](C)C(=O)N[C@@H](CC(C)C)C(=O)N[C@@H](CCCNC(=N)N)C(=O)N[C@@H](CCCCN)C(=O)N[C@@H](Cc1c[nH]c2ccccc12)C(=O)N[C@@H](CCSC)C(=O)N[C@@H](Cc1ccccc1)C(=O)N[C@H](C(N)=O)[C@@H](C)CC)[C@@H](C)O [Compound 46] (Palmitoyl-TDALRKWMFI-NH2)
3 | 1 to 5 µM | 62% | CCCCCCCCCCCCCCCC(=O)N[C@H](C(=O)N[C@@H](CC(=O)O)C(=O)N[C@@H](CCCNC(=N)N)C(=O)N[C@@H](C)C(=O)N[C@@H](CCCNC(=N)N)C(=O)N[C@@H](CCCCN)C(=O)N[C@@H](Cc1c[nH]c2ccccc12)C(=O)N[C@@H](CCSC)C(=O)N[C@@H](Cc1ccccc1)C(=O)N[C@H](C(N)=O)[C@@H](C)CC)[C@@H](C)O [Compound 47] (Palmitoyl-TDRARKWMFI-NH2)
4 | > 10 µM | 42% | CCCCCCCCCCCCCCCC(=O)N[C@H](C(=O)N[C@@H](CC(=O)O)C(=O)N[C@@H](CCCNC(=N)N)C(=O)N[C@@H](CC(C)C)C(=O)N[C@@H](CCCNC(=N)N)C(=O)N[C@@H](C)C(=O)N[C@@H](Cc1c[nH]c2ccccc12)C(=O)N[C@@H](CCSC)C(=O)N[C@@H](Cc1ccccc1)C(=O)N[C@H](C(N)=O)[C@@H](C)CC)[C@@H](C)O [Compound 49] (Palmitoyl-TDRLRAWMFI-NH2)
5 | > 10 µM | 58% | CCCCCCCCCCCCCCCC(=O)N[C@H](C(=O)N[C@@H](CC(=O)O)C(=O)N[C@@H](CCCNC(=N)N)C(=O)N[C@@H](CC(C)C)C(=O)N[C@@H](CCCNC(=N)N)C(=O)N[C@@H](CCCCN)C(=O)N[C@@H](C)C(=O)N[C@@H](CCSC)C(=O)N[C@@H](Cc1ccccc1)C(=O)N[C@H](C(N)=O)[C@@H](C)CC)[C@@H](C)O [Compound 50] (Palmitoyl-TDRLRKAMFI-NH2)
6 | 0.501 to 1 µM | 47 ± 7% | CCCCCCCCCCCCCCCC(=O)N[C@H](C(=O)N[C@@H](CC(=O)O)C(=O)N[C@@H](CCCNC(=N)N)C(=O)N[C@@H](CC(C)C)C(=O)N[C@@H](CCCNC(=N)N)C(=O)N[C@@H](CCCCN)C(=O)N[C@@H](Cc1c[nH]c2ccccc12)C(=O)N[C@@H](C)C(=O)N[C@@H](Cc1ccccc1)C(=O)N[C@H](C(N)=O)[C@@H](C)CC)[C@@H](C)O [Compound 51] (Palmitoyl-TDRLRKWAFI-NH2)
7 | > 10 µM | 70% | CCCCCCCCCCCCCCCC(=O)N[C@H](C(=O)N[C@@H](CC(=O)O)C(=O)N[C@@H](CCCNC(=N)N)C(=O)N[C@@H](CC(C)C)C(=O)N[C@@H](CCCNC(=N)N)C(=O)N[C@@H](CCCCN)C(=O)N[C@@H](Cc1c[nH]c2ccccc12)C(=O)N[C@@H](CCSC)C(=O)N[C@@H](Cc1ccccc1)C(=O)N[C@@H](C)C(N)=O)[C@@H](C)O [Compound 52] (Palmitoyl-TDRLRKWMFA-NH2)
8 |  | 50 ± 14% | CCCCCCCCCCCCCCCC(=O)NCC(=O)N[C@@H](CO)C(=O)N[C@H](C(=O)N[C@@H](CC(=O)O)C(=O)N[C@@H](CCCNC(=N)N)C(=O)N[C@@H](CC(C)C)C(=O)N[C@@H](CCCNC(=N)N)C(=O)N[C@@H](CCCCN)C(=O)N[C@@H](C)C(=O)N[C@@H](CCCC)C(=O)N[C@@H](Cc1ccccc1)C(=O)N[C@H](C(N)=O)[C@@H](C)CC)[C@@H](C)O [Compound 53] (Palmitoyl-GSTDRLRKA[Nle]FI-NH2)
9 |  | 55 ± 7% | CCCCCCCCCCCCCCCC(=O)N[C@H](C(=O)N[C@@H](CC(=O)O)C(=O)N[C@@H](CCCNC(=N)N)C(=O)N[C@@H](CC(C)C)C(=O)N[C@@H](CCCNC(=N)N)C(=O)N[C@@H](CCCCN)C(=O)N[C@@H](Cc1c[nH]c2ccccc12)C(=O)N[C@@H](CCCC)C(=O)N[C@@H](Cc1ccccc1)C(=O)N[C@H](C(N)=O)[C@@H](C)CC)[C@@H](C)O [Compound 54] (Palmitoyl-TDRLRKW[Nle]FI-NH2)
10 | 0.501 to 1 µM | 35% | CCCCCCCCCCCCCCCC(=O)N[C@@H](CCCNC(=N)N)C(=O)N[C@H](C(=O)N[C@@H](CC(C)C)C(=O)N[C@@H](CCSC)C(=O)N[C@H](C(=O)N[C@@H](CCCCN)C(=O)N[C@@H](CC(C)C)C(=O)N[C@@H](CCCNC(=N)N)C(=O)N[C@@H](C)C(=O)N[C@@H](CO)C(=O)N[C@H](C(=O)N[C@H](C(=O)N[C@@H](CO)C(N)=O)[C@@H](C)O)[C@@H](C)O)[C@@H](C)O)[C@@H](C)CC [Compound 58, Pal-RILMTKLRASTTS-amide] (Palmitoyl-RILMTKLRASTTS-NH2)
11 | 1 to 5 µM | 50% | CCCCCCCCCCCCCCCC(=O)N[C@@H](C)C(=O)N[C@@H](CO)C(=O)N[C@H](C(=O)N[C@H](C(=O)N[C@@H](CO)C(=O)N[C@@H](CCC(=O)O)C(=O)N[C@H](C(=O)N[C@H](C(=O)N[C@@H](CCC(N)=O)C(=O)N[C@@H](Cc1ccc(O)cc1)C(=O)N[C@@H](CCCNC(=N)N)C(=O)N[C@@H](CCCCN)C(=O)N[C@@H](C)C(=O)N[C@H](C(=O)N[C@@H](CCCCN)C(=O)N[C@@H](CO)C(N)=O)C(C)C)[C@@H](C)CC)[C@@H](C)O)[C@@H](C)O)[C@@H](C)O [Compound 62] (Palmitoyl-ASTTSETIQYRKAVKS-NH2)
12 | 1 to 5 µM | 55 ± 13% | CCCCCCCCCCCCCCCC(=O)NCC(=O)N[C@@H](CO)C(=O)N[C@H](C(=O)N[C@@H](CCCNC(=N)N)C(=O)N[C@@H](C)C(=O)N[C@@H](CCCNC(=N)N)C(=O)N[C@H](C(=O)N[C@@H](C)C(=O)N[C@@H](CCCNC(=N)N)C(=O)N[C@@H](C)C(=O)N[C@@H](CCSC)C(N)=O)C(C)C)[C@@H](C)CC [Compound 64] (Palmitoyl-GSIRARVARAM-NH2)
